# Molecular target: Tyrosine-protein kinase BTK (Homo sapiens, UniProt Q06187)
# Assay: Inhibitory Assay: BTK enzyme evaluation with each compound of examples of the invention was performed by using BTK enzyme inhibition diagnosis kit (Cisbio, Codolet, France). ATP (adenosine triphosphate), BTK, peptide (biotin-Aca-[…]-NH2) and each compound of examples of the invention were mixed, followed by reaction for 30 minutes. Then, EDTA (ethylenediaminetetraacetic acid) was added thereto in order to terminate the reaction. At this time, the EDTA solution contained curopium-containing antibody (antiphosphoresidue antibody) and straptavidin-XL665 (SA-XL665, Cisbio). After incubation for 1 hour, fluorescence was measured. The emission values of 665 nm and 620 nm excited at 337 nm were measured with Envision reader.
# Chain of Tyrosine-protein kinase BTK (Q06187 whole entry): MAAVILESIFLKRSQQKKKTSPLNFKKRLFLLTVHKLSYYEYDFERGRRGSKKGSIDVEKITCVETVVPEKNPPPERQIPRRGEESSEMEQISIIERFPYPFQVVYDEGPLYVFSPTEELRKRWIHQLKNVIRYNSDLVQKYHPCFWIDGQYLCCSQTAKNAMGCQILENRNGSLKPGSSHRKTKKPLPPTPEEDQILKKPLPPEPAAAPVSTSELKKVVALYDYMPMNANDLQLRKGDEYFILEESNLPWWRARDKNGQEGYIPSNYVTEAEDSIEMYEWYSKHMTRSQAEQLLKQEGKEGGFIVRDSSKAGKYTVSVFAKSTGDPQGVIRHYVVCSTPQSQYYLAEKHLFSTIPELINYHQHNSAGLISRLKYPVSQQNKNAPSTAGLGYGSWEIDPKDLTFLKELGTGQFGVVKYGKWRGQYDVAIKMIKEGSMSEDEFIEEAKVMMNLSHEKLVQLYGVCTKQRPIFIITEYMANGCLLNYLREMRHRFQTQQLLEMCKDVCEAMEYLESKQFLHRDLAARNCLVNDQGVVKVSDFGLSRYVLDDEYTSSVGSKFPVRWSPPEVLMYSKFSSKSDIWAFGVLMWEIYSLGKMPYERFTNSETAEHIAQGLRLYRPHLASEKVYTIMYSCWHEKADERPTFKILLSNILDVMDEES
row,IC50 [nM],Compound
1,0.67,Cn1nc(Nc2c(Cl)cccc2Cl)c2cnc(Nc3ccc4c(c3)CCNC4)nc21
2,0.3,Cc1cccc(C)c1Nc1n[nH]c2nc(Nc3ccc4c(c3)CNCC4)ncc12
3,0.6,Cc1cccc(C)c1Nc1nn(C)c2nc(Nc3ccc4c(c3)CNCC4)ncc12
4,26.7,Cc1ccc(NC(=O)Nc2cccc(C(F)(F)F)c2)cc1Nc1nn(C)c2nc(Nc3ccc4c(c3)CNCC4)ncc12

# Reference: ChEMBL document CHEMBL5728637, “Pyrazolopyrimidine derivatives, preparation method thereof, and pharmaceutical composition for use in preventing or treating cancer, autoimmune disease and brain disease containing the same as an active ingredient” (2021)
